Measurements from patent publication US9145392B2, “Imidazole amines as modulators of kinase activity” (Merck Patent GmbH, priority 2011, dated 2015).
Like-named read-outs stand apart in the source and are kept apart here.

Key:
P70S6K (T412E mutant) = P70S6K (T412E mutant) (Homo sapiens (Human), UniProt P23443, T412E); experiment: P70S6K enzyme assay; format: biochemical
Summary of the method: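 Read-out is the substrate/phosphopeptide ratio from mobility-shift electrophoresis on a LabChip 3000.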

His-AKT (Full Length) = His-AKT (Full Length) (Homo sapiens (Human), UniProt P31749); experiment: AKT enzyme assay; format: biochemical
Sequence of His-AKT (Full Length) (P31749 whole entry): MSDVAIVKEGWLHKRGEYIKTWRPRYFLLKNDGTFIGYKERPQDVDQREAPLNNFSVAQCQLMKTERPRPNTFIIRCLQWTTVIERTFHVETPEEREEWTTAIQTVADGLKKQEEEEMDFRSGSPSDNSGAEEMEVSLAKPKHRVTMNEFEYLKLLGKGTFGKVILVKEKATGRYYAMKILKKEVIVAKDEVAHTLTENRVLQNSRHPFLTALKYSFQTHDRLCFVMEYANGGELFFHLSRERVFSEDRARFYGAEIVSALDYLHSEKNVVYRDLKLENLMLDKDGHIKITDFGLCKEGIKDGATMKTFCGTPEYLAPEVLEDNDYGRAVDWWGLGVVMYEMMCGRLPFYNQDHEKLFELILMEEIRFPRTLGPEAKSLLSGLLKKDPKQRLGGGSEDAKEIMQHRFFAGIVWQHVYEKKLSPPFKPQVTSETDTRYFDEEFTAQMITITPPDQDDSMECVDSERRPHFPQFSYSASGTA

Sequence of P70S6K (T412E mutant) (P23443 whole entry T412E): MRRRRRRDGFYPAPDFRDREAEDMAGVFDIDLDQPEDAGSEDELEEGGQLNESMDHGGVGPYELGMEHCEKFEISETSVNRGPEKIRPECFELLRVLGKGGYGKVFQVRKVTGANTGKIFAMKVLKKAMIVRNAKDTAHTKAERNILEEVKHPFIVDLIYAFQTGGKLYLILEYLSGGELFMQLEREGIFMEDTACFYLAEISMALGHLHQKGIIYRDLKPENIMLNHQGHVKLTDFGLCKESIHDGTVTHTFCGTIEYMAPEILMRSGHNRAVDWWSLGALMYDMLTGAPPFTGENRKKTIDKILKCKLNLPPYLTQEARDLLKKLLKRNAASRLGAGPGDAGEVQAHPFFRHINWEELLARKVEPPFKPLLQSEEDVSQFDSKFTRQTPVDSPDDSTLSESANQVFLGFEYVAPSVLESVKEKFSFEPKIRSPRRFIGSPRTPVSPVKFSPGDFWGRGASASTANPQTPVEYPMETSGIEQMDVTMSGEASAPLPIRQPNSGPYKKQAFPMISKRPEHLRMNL

| Structure (SMILES) | IC50 (P70S6K (T412E mutant); read-out: IC50 p70S6K) | IC50 (His-AKT (Full Length); read-out: IC50 AKT) | IC50 (P70S6K (T412E mutant); read-out: IC50 (p70S6K enzyme)) | IC50 (His-AKT (Full Length); read-out: IC50 (AKT enzyme)) |
| --- | --- | --- | --- | --- |
| N#Cc1c(N)ncnc1N1CCC(c2nc(-c3ccc(F)c(C(F)(F)F)c3)cn2C2CCNCC2)CC1 [Compound 155, 4-amino-6-(4-(4-(4-fluoro-3-(trifluoromethyl)phenyl)-1-(piperidin-4-yl)-1H-imidazol-2-yl)piperidin-1-yl)pyrimidine-5-carbonitrile] | 0.9 nM | 160 nM |  |  |
| CN1CC(Cn2cc(-c3ccc(F)c(C(F)(F)F)c3)nc2C2CCN(c3ncnc(N)c3C(N)=O)CC2)C1 [Compound 156, 4-amino-6-(4-(4-(4-fluoro-3-(trifluoromethyl)phenyl)-1-((1-methylazetidin-3-yl)methyl)-1H-imidazol-2-yl)piperidin-1-yl)pyrimidine-5-carboxamide] | 4.9 nM | 81 nM |  |  |
| N#Cc1c(N)ncnc1N1CCC(c2nc(-c3ccc(F)c(C(F)(F)F)c3)cn2CCN)CC1 [Compound 158, 4-amino-6-(4-(1-(2-aminoethyl)-4-(4-fluoro-3-(trifluoromethyl)phenyl)-1H-imidazol-2-yl)piperidin-1-yl)pyrimidine-5-carbonitrile] | 1.5 nM | 3.6 nM |  |  |
| Cc1cc(-c2cn(CCO)c(C3CCN(c4ncnc(N)c4-c4cn[nH]c4)CC3)n2)ccc1F [Compound 160, 2-(2-(1-(6-amino-5-(1H-pyrazol-4-yl)pyrimidin-4-yl)piperidin-4-yl)-4-(4-fluoro-3-methylphenyl)-1H-imidazol-1-yl)ethanol] | 6.7 nM | 670 nM |  |  |
| CNCCn1cc(-c2ccc(F)c(C)c2)nc1C1CCN(c2ncnc(N)c2-c2cn[nH]c2)CC1 [Compound 162, 6-(4-(4-(4-fluoro-3-methylphenyl)-1-(2-(methylamino)ethyl)-1H-imidazol-2-yl)piperidin-1-yl)-5-(1H-pyrazol-4-yl)pyrimidin-4-amine] | 5.9 nM | 21 nM |  |  |
| Cc1cc(-c2cn(CCN3CCC3)c(C3CCN(c4ncnc(N)c4-c4cn[nH]c4)CC3)n2)ccc1F [Compound 164, 6-(4-(1-(2-(azetidin-1-yl)ethyl)-4-(4-fluoro-3-methylphenyl)-1H-imidazol-2-yl)piperidin-1-yl)-5-(1H-pyrazol-4-yl)pyrimidin-4-amine] | 4.4 nM | 5.5 nM |  |  |
| Cc1cc(-c2cn(CCNC(C)(C)C)c(C3CCN(c4ncnc(N)c4-c4cn[nH]c4)CC3)n2)ccc1F [Compound 165, 6-(4-(1-(2-(tert-butylamino)ethyl)-4-(4-fluoro-3-methylphenyl)-1H-imidazol-2-yl)piperidin-1-yl)-5-(1H-pyrazol-4-yl)pyrimidin-4-amine] | 2.8 nM | 5.5 nM |  |  |
| Nc1ncnc(N2CCC(c3nc(-c4ccnc(C(F)(F)F)c4)cn3CCNC3CC3)CC2)c1Cl [Compound 173, 5-chloro-6-(4-(1-(2-(cyclopropylamino)ethyl)-4-(2-(trifluoromethyl)pyridin-4-yl)-1H-imidazol-2-yl)piperidin-1-yl)pyrimidin-4-amine] | 2.8 nM | 3.6 nM |  |  |
| CCNCCn1cc(-c2ccc(F)c(C(F)(F)F)c2)nc1C1CCN(c2ncnc(N)c2OC(C)C)CC1 [Compound 174, 6-(4-(1-(2-(ethylamino)ethyl)-4-(4-fluoro-3-(trifluoromethyl)phenyl)-1H-imidazol-2-yl)piperidin-1-yl)-5-isopropoxypyrimidin-4-amine] | 0.44 nM | 0.52 nM |  |  |
| Cc1cc(-c2cn(CCN3CCC3)c(C3CCN(c4ncnc(N)c4OC(C)C)CC3)n2)ccc1F [Compound 178, 6-(4-(1-(2-(azetidin-1-yl)ethyl)-4-(4-fluoro-3-methylphenyl)-1H-imidazol-2-yl)piperidin-1-yl)-5-isopropoxypyrimidin-4-amine] | 3.9 nM | 2.7 nM |  |  |
| C=Cc1c(N)ncnc1N1CCC(c2nc(-c3ccnc(C(C)C)c3)cn2CCN2CCC2)CC1 [Compound 182, 6-(4-(1-(2-(azetidin-1-yl)ethyl)-4-(2-isopropylpyridin-4-yl)-1H-imidazol-2-yl)piperidin-1-yl)-5-vinylpyrimidin-4-amine] | 0.7 nM | 2.2 nM |  |  |

Continued by falling IC50 (P70S6K (T412E mutant); read-out: IC50 p70S6K), values first:

| IC50 (P70S6K (T412E mutant); read-out: IC50 p70S6K) | IC50 (His-AKT (Full Length); read-out: IC50 AKT) | IC50 (P70S6K (T412E mutant); read-out: IC50 (p70S6K enzyme)) | IC50 (His-AKT (Full Length); read-out: IC50 (AKT enzyme)) | Structure (SMILES) |
| --- | --- | --- | --- | --- |
| 170 nM | 120 nM |  |  | CNCCn1cc(-c2ccnc(C(F)(F)F)c2)nc1C1CCN(c2ncnc(N)c2C2C=NOC2)CC1 (centres unmarked) [Compound 170, 5-(4,5-dihydroisoxazol-4-yl)-6-(4-(1-(2-(methylamino)ethyl)-4-(2-(trifluoromethyl)pyridin-4-yl)-1H-imidazol-2-yl)piperidin-1-yl)pyrimidin-4-amine] |
| 130 nM | > 1000 nM |  |  | CNCCn1cc(-c2ccnc(C(F)(F)F)c2)nc1C1CCN(c2cc(N)ncn2)CC1 [Compound 167, 6-(4-(1-(2-(methylamino)ethyl)-4-(2-(trifluoromethyl)pyridin-4-yl)-1H-imidazol-2-yl)piperidin-1-yl)pyrimidin-4-amine] |
| 12.9 nM | 150 nM | 12.9 nM | 150 nM | Cc1cc(-c2cn(CCNC3CC3)c(C3CCN(c4ncnc(N)c4-c4cn[nH]c4)CC3)n2)ccc1F [Compound 161, 6-(4-(1-(2-(cyclooropylamino)ethyl)-4-(4-fluoro-3-methylphenyl)-1H-imidazol-2-yl)piperidin-1-yl)-5-(1H-pyrazol-4-yl)pyrimidin-4-amine] |
| 12 nM | 74 nM |  |  | C=Cc1c(N)ncnc1N1CCC(c2nc(-c3ccc(F)c(C(F)(F)F)c3)cn2CC2CNC2)CC1 [Compound 183, 6-(4-(1-(azetidin-3-ylmethyl)-4-(4-fluoro-3-(trifluoromethyl)phenyl)-1H-imidazol-2-yl)piperidin-1-yl)-5-vinylpyrimidin-4-amine] |
| 5.9 nM | 4.5 nM |  |  | CC(C)Oc1c(N)ncnc1N1CCC(c2nc(-c3ccc(F)c(C(F)(F)F)c3)cn2CC2CNC2)CC1 [Compound 175, 6-(4-(1-(azetidin-3-ylmethyl)-4-(4-fluoro-3-(trifluoromethyl)phenyl)-1H-imidazol-2-yl)piperidin-1-yl)-5-isopropoxypyrimidin-4-amine] |
| 5.5 nM | 5 nM |  |  | CCOc1c(N)ncnc1N1CCC(c2nc(-c3ccc(F)c(C(F)(F)F)c3)cn2CC2CNC2)CC1 [Compound 176, 6-(4-(1-(azetidin-3-ylmethyl)-4-(4-fluoro-3-(trifluoromethyl)phenyl)-1H-imidazol-2-yl)piperidin-1-yl)-5-ethoxypyrimidin-4-amine] |
| 2.9 nM | 2.7 nM |  |  | Nc1ncnc(N2CCC(c3nc(-c4ccnc(C(F)(F)F)c4)cn3CCN3CCC3)CC2)c1-c1cnoc1 [Compound 168, 6-(4-(1-(2-(azetidin-1-yl)ethyl)-4-(2-(trifluoromethyl)pyridin-4-yl)-1H-imidazol-2-yl)piperidin-1-yl)-5-(isoxazol-4-yl)pyrimidin-4-amine] |
| 2 nM | 190 nM |  |  | CCc1c(N)ncnc1N1CCC(c2nc(-c3ccc(F)c(C(F)(F)F)c3)cn2C2CCNCC2)CC1 [Compound 157, 5-ethyl-6-(4-(4-(4-fluoro-3-(trifluoromethyl)phenyl)-1-(piperidin-4-yl)-1H-imidazol-2-yl)piperidin-1-yl)pyrimidin-4-amine] |
| 2 nM | 1.4 nM |  |  | CNCCn1cc(-c2ccnc(C(F)(F)F)c2)nc1C1CCN(c2ncnc(N)c2Cl)CC1 [Compound 172, 5-chloro-6-(4-(1-(2-(methylamino)ethyl)-4-(2-(trifluoromethyl)pyridin-4-yl)-1H-imidazol-2-yl)piperidin-1-yl)pyrimidin-4-amine] |
| 1.9 nM | 4.2 nM |  |  | CCc1c(N)ncnc1N1CCC(c2nc(-c3ccnc(C(C)C)c3)cn2CCN2CCC2)CC1 [Compound 179, 6-(4-(1-(2-(azetidin-1-yl)ethyl)-4-(2-isopropylpyridin-4-yl)-1H-imidazol-2-yl)piperidin-1-yl)-5-ethylpyrimidin-4-amine] |
| 1.5 nM | 15 nM |  |  | NCCn1cc(-c2ccc(F)c(C(F)(F)F)c2)nc1C1CCN(c2ncnc(N)c2C(N)=O)CC1 [Compound 159, 4-amino-6-(4-(1-(2-aminoethyl)-4-(4-fluoro-3-(trifluoromethyl)phenyl)-1H-imidazol-2-yl)piperidin-1-yl)pyrimidine-5-carboxamide] |
| 1.3 nM | 1.5 nM |  |  | CNCCn1cc(-c2ccnc(C(F)(F)F)c2)nc1C1CCN(c2ncnc(N)c2Br)CC1 [Compound 166, 5-bromo-6-(4-(1-(2-(methylamino)ethyl)-4-(2-(trifluoromethyl)pyridin-4-yl)-1H-imidazol-2-yl)piperidin-1-yl)pyrimidin-4-amine] |
| 1.3 nM | 1.7 nM |  |  | CNCCn1cc(-c2ccnc(C(F)(F)F)c2)nc1C1CCN(c2ncnc(N)c2C#N)CC1 [Compound 169, 4-amino-6-(4-(1-(2-(methylamino)ethyl)-4-(2-(trifluoromethyl)pyridin-4-yl)-1H-imidazol-2-yl)piperidin-1-yl)pyrimidine-5-carbonitrile] |
| 1.1 nM | 2.4 nM |  |  | CC(C)c1cc(-c2cn(CCN3CCC3)c(C3CCN(c4ncnc(N)c4Cl)CC3)n2)ccn1 [Compound 180, 6-(4-(1-(2-(azetidin-1-yl)ethyl)-4-(2-isopropylpyridin-4-yl)-1H-imidazol-2-yl)piperidin-1-yl)-5-chloropyrimidin-4-amine] |
| 0.73 nM | 4.8 nM |  |  | Cc1cc(-c2cn(CCN(C)C)c(C3CCN(c4ncnc(N)c4-c4cn[nH]c4)CC3)n2)ccc1F [Compound 163, 6-(4-(1-(2-(dimethylamino)ethyl)-4-(4-fluoro-3-methylphenyl)-1H-imidazol-2-yl)piperidin-1-yl)-5-(1H-pyrazol-4-yl)pyrimidin-4-amine] |
| 0.11 nM | 0.15 nM |  |  | CC(C)c1cc(-c2cn(CCN3CCC3)c(C3CCN(c4ncnc(N)c4Br)CC3)n2)ccn1 [Compound 181, 6-(4-(1-(2-(azetidin-1-yl)ethyl)-4-(2-isopropylpyridin-4-yl)-1H-imidazol-2-yl)piperidin-1-yl)-5-bromopyrimidin-4-amine] |
